Measurements published in ChEMBL document CHEMBL3098126, “Identification through structure-based methods of a bacterial NAD(+)-dependent DNA ligase inhibitor that avoids known resistance mutations” (Bioorg Med Chem Lett, 2014).
Values after ≈ are worked out from the molar mass of the structure shown.

Legend:
DNA ligase = DNA ligase (Staphylococcus aureus, UniProt Q9AIU7); test: Inhibition of Staphylococcus aureus LigA
[1] = Inhibition of Enterococcus faecalis LigA
[2] = Inhibition of Haemophilus influenzae LigA
[3] = Inhibition of wild type Streptococcus pneumoniae LigA
[4] = Inhibition of Streptococcus pneumoniae LigA L75F mutant
Streptococcus pneumoniae [5] = test: Antibacterial activity against Streptococcus pneumoniae ARC548; type: functional
Streptococcus pneumoniae [6] = test: Selectivity ratio of IC50 for Streptococcus pneumoniae LigA L75F mutant to IC50 for wild type Streptococcus pneumoniae LigA

IC50 (DNA ligase)	IC50 [1]	IC50 [2]	IC50 [3]	Structure (SMILES)	IC50 [4]	MIC (Streptococcus pneumoniae [5])	Ratio IC50 (Streptococcus pneumoniae [6])
180 µM	130 µM	200 µM	150 µM	CCCNc1ncc(C(N)=O)c2sc(Br)cc12			
39 µM	130 µM	> 200 µM	36 µM	NC(=O)c1cnc(N)c2c(Br)csc12			
15 µM	34 µM	> 200 µM	9.4 µM	NC(=O)c1cc2c(N)ncc(C(N)=O)c2s1			
> 200 µM	> 200 µM	> 200 µM	> 140 µM	Cc1csc2c(C(N)=O)cnc(N)c12			
69 µM	> 200 µM	> 200 µM	52 µM	NC(=O)c1cnc(N)c2c(C(N)=O)csc12			
> 200 µM	> 200 µM	> 200 µM	100 µM	NC(=O)c1cnc(N)c2c(-c3ccn[nH]3)csc12			
75 µM	> 200 µM	> 200 µM	140 µM	CCNC(=O)c1cc2c(N)ncc(C(N)=O)c2s1			
> 200 µM	> 200 µM	> 200 µM	200 µM	Cc1cc2c(N)ncc(C(N)=O)c2s1			
36 µM	100 µM	> 200 µM	29 µM	NC(=O)c1cnc(N)c2cc(-c3ccn[nH]3)sc12			
> 200 µM	> 200 µM	> 200 µM	25 µM	NC(=O)c1cnc(N)c2ccsc12			
> 200 µM	> 200 µM	> 200 µM	> 200 µM	NC(=O)c1cnc(NCCO)c2cc(Br)sc12			
150 µM	160 µM	160 µM	> 200 µM	NC(=O)c1cnc(Nc2ccccc2)c2cc(Br)sc12			

Structure (SMILES)	IC50 (DNA ligase)	IC50 [1]	IC50 [2]	IC50 [3]	IC50 [4]	MIC (Streptococcus pneumoniae [5])	Ratio IC50 (Streptococcus pneumoniae [6])
CCOC(=O)c1cc2c(N)ncc(C(N)=O)c2s1	8.9 µM	74 µM	> 200 µM	9.4 µM			
Cc1c(Br)sc2c(C(N)=O)cnc(N)c12	7.1 µM	8.1 µM	> 200 µM	3.1 µM	37 µM		
Nc1nc(OC2CCCC2)nc2c1ncn2[C@@H]1O[C@H](CO)[C@@H](O)[C@H]1O	0.43 µM		0.51 µM	0.21 µM	33 µM	8 µg/mL (≈ 22.8 µM)	
NC(=O)c1cnc(N)c2cc(Br)sc12	48 µM	77 µM	160 µM	21 µM	48 µM	> 64 µg/mL	2
